Data from PMC12589998, “Development and validation of a UHPLC-QqQ-MS/MS method for simultaneous determination of fifteen major components from Oroxyli seed extract in rat plasma and its application in the pharmacokinetic study” (Frontiers in Pharmacology, 2025).
Like-named read-outs stand apart in the source and are kept apart here.

Columns and labels:
[1] = Pharmacokinetic study in rats after oral administration of OS extract (UHPLC-QqQ-MS/MS of plasma); type: in vivo, rat; conditions: for concentration at 0.5 h / AUC(0-t) / AUC(0-inf) / Cmax / half-life / Tmax: male
Description: The UHPLC-QqQ-MS/MS system consisted of a 1290 UHPLC and a 6470 mass spectrometer (Agilent Technologies). Chromatographic separation was realized on utilizing an ACQUITY UPLC BEH C18 column (2.1 × 100 mm, 1.7 μm) maintained at 35 °C. The mobile phase consisting of 0.1% formic acid in water (A) and acetonitrile (B) was utilized with the elution program set at 0 min–1 min, 5% B–30% B; 1 min–4 min, 30% B– 50% B; 4 min–8 min, and 50% B–90% B. The injection volume was 5 μL, and the flow rate was 0.3 mL/min. The mass spectrometry parameters in the negative ion mode, gas temperature, flow rate, and nebulizer pressure were 300 °C, 7 L/min, and 35 psi, respectively. The mass spectra properties of the 15 analytes and the IS are illustrated in Table 1.
To 100 μL of the plasma sample, 20 μL of methanol, 20 μL of IS solution (methylparaben, 1 μg/mL), and 5 μL of formic acid were added and vortexed for a duration of 2 min. Subsequently, the mixture underwent extraction with 800 μL of acetonitrile for 3 min. Following 10 min of centrifugation at 12,000 g, the supernatant was collected and evaporated to dryness under N2 to obtain the residue. Finally, the residue was reconstituted in 50% methanol (100 μL) and utilized for analysis.
Before initiating the study, six male SD rats underwent a 12-h fasting period, during which they were granted unrestricted access to water. Then, the rats were administered an oral dose of 3 g/kg of the OS extract, which had been dissolved in 0.5% CMC-Na aqueous solution. Blood samples, approximately 200 μL each, were collected at various time points: before administration and at 0.03, 0.08, 0.17, 0.25, 0.5, 0.75, 1, 2, 4, 6, 8, 10, 12, 24, 36, and 48 h post-administration. Following 10 min of centrifugation at 6,000 g, the resultant samples were stored at −80 °C.
The developed method was effectively applied to study the pharmacokinetics in rats following oral administration of the OS extract. […] This was likely due to their low concentrations in the OS extract. Ultimately, nine components (chrysin, chrysin-7-O-β-D-glucuronide, baicalin, baicalein, oroxin A, oroxin B, oroxylin A, oroxylin A-7-O-β-D-glucuronide, and scutellarein) were successfully fitted with pharmacokinetic parameters. The average plasma concentration–time profiles of these substances are depicted in Figure 3. […] All data were presented as the mean ± standard deviation (Mean ± SD).

[2] = Stability of the analytes in rat plasma samples under storage conditions; type: physicochemical; conditions: n = 6
Description: The bioanalytical method validation was evaluated for specificity, linearity, sensitivity, precision and accuracy, recovery, matrix effect, and stability to ensure compliance with the U.S. Food and Drug Administration (FDA) guidance on precise quantitative analysis ([Center for Drug Evaluation and Research of the U.S., 2018]). The assessment of specificity was conducted by comparing the chromatograms obtained from blank plasma, blank plasma spiked with the target components, and samples gathered following the oral administration of OS extract. Calibration curves were constructed by plotting the ratio for the peak area of the analyte to IS versus the concentration, with 1/x^2 serving as the weighting factor. The lower limit of quantification (LLOQ) was defined as the concentration at which a signal to noise ratio of […] 10 was achievable. The evaluation of precision and accuracy involved the analysis of six QC samples, both within a single day and over 3 consecutive days. Accuracy was expressed as the relative error (RE), whereas precision was gauged via relative standard deviation (RSD). Extraction recovery was ascertained by juxtaposing the responses of analytes in extracted samples against those in samples that were spiked post-extraction. The matrix effect was scrutinized by determining the ratio of the responses of the analytes in post-extraction spiked samples to those in the mixed standard solution. The stability of the analytes in plasma samples was explored under diverse conditions: encompassing a 12-h period in an autosampler, a 4-h interval at room temperature, three cycles of freezing–thawing, and a 7-day duration at −80 °C.
The retention times of the analyte peaks were consistent with those in the spiked samples. […] The LLOQs for chrysin, chrysin-7-O-β-D-glucuronide, hispidulin, wogonoside, quercetin, quercetin-7-O-β-D-glucoside, baicalin, baicalein, acacetin, oroxin A, oroxin B, oroxylin A, oroxylin A-7-O-β-D-glucuronide, apigenin, and scutellarein were 1.0, 2.0, 1.0, 0.3, 1.0, 0.1, 9.0, 6.0, 0.3, 6.0, 4.0, 1.0, 2.0, 0.5, and 0.3 ng/mL, respectively. In Supplementary Table S2, the RE for accuracy is between −13.77% and 12.55%, and the RSD for precision is below 14.55% (both intra- and inter-day). […] The matrix effect varied from 60.15% to 115.53%, with RSD values below 10.54%. In Supplementary Table S4, the RSD values for stability of the analytes are found to be lower than 13.98%, meaning that these components were stable under the following conditions: encompassing a 12-h period in an autosampler, a 4-h interval at room temperature, three cycles of freezing and thawing, and a 7-day duration at −80 °C.

[3] = SD, 3 g/kg, rat plasma collected 0.5 h after oral administration of the OS extract, read-out: Concentration printed in MRM chromatogram of plasma sample (Figure 2C)
[4] = rat plasma, oral 3 g/kg OS extract, n = 6, mean ± SD, read-out: Tmax
[5] = spiked concentration 1600 ng/mL

Question: For `COc1c(O[C@@H]2O[C@H](C(=O)O)[C@@H](O)[C@H](O)[C@H]2O)cc(O)c2c(=O)cc(-c3ccccc3)oc12` [Wogonoside, wogonoside], which concentration at 0.5 h [1, 3] is on record?
Answer: Its concentration at 0.5 h is 11 ng/mL.

Question: And the Plasma levels ([1]; rat plasma after oral OS extract)?
Answer: Its Plasma levels is “too weak to obtain comprehensive pharmacokinetic curves”.

Question: And the “Measured, -80°C for 7 days” value ([2]; spiked concentration 2 ng/mL)?
Answer: The value was 1.78 ± 0.17 ng/mL.

Question: What about the “Measured, Autosampler for 12 h” value ([2]; spiked concentration 2 ng/mL) of the same compound?
Answer: The value was 2.07 ± 0.26 ng/mL.

Question: What about the “Measured, Room temperature for 4 h” value ([2]; spiked concentration 2 ng/mL) of the same compound?
Answer: Its value is 1.82 ± 0.14 ng/mL.

Question: What about the “Measured, Three freeze-thaw cycles” value ([2]; spiked concentration 2 ng/mL) of the same compound?
Answer: Its value is 1.86 ± 0.09 ng/mL.

Question: And the “Measured, -80°C for 7 days” value ([2]; spiked concentration 20 ng/mL)?
Answer: Its value is 22.33 ± 0.89 ng/mL.

Question: What about the “Measured, Autosampler for 12 h” value ([2]; spiked concentration 20 ng/mL) of the same compound?
Answer: Its value is 22.77 ± 1.13 ng/mL.

Question: And the “Measured, Room temperature for 4 h” value ([2]; spiked concentration 20 ng/mL)?
Answer: Its value is 19.87 ± 0.76 ng/mL.

Question: And the “Measured, Three freeze-thaw cycles” value ([2]; spiked concentration 20 ng/mL)?
Answer: Its value is 18.01 ± 1.31 ng/mL.

Question: And the “Measured, -80°C for 7 days” value ([2]; spiked concentration 320 ng/mL)?
Answer: The value was 287.53 ± 32.71 ng/mL.

Question: And the “Measured, Autosampler for 12 h” value ([2]; spiked concentration 320 ng/mL)?
Answer: The value was 307.85 ± 37.80 ng/mL.

Question: What about the “Measured, Room temperature for 4 h” value ([2]; spiked concentration 320 ng/mL) of the same compound?
Answer: The value was 327.84 ± 23.82 ng/mL.

Question: What about the “Measured, Three freeze-thaw cycles” value ([2]; spiked concentration 320 ng/mL) of the same compound?
Answer: Its value is 310.87 ± 20.44 ng/mL.

Question: Which results are given for `O=c1cc(-c2ccc(O)cc2)oc2cc(O)c(O)c(O)c12` [Scutellarein, scutellarein]?
Answer: concentration at 0.5 h [1, 3]: 14 ng/mL; AUC(0-t) ([1]; rat plasma, oral 3 g/kg OS extract, n = 6, mean ± SD, read-out: AUC(0-t)): 89.4 ± 18.5 ng·h/mL; AUC(0-inf) ([1]; rat plasma, oral 3 g/kg OS extract, n = 6, mean ± SD, read-out: AUC(0-∞)): 95.6 ± 17.5 ng·h/mL; Cmax ([1]; rat plasma, oral 3 g/kg OS extract, n = 6, mean ± SD, read-out: Cmax): 47.8 ± 15.1 ng/mL; half-life ([1]; rat plasma, oral 3 g/kg OS extract, n = 6, mean ± SD, read-out: T1/2 (converted)): 4.07 ± 1.61 h; Tmax [1, 4]: 0.1 ± 0.04 h; Measured, -80°C for 7 days ([2]; spiked concentration 2 ng/mL): 1.77 ± 0.12 ng/mL; Measured, Autosampler for 12 h ([2]; spiked concentration 2 ng/mL): 2.05 ± 0.22 ng/mL; Measured, Room temperature for 4 h ([2]; spiked concentration 2 ng/mL): 1.84 ± 0.17 ng/mL; Measured, Three freeze-thaw cycles ([2]; spiked concentration 2 ng/mL): 1.78 ± 0.13 ng/mL; Measured, -80°C for 7 days ([2]; spiked concentration 20 ng/mL): 19.80 ± 0.92 ng/mL; Measured, Autosampler for 12 h ([2]; spiked concentration 20 ng/mL): 19.68 ± 1.68 ng/mL; Measured, Room temperature for 4 h ([2]; spiked concentration 20 ng/mL): 18.12 ± 0.51 ng/mL; Measured, Three freeze-thaw cycles ([2]; spiked concentration 20 ng/mL): 21.33 ± 0.83 ng/mL; Measured, -80°C for 7 days ([2]; spiked concentration 320 ng/mL): 296.10 ± 18.07 ng/mL; Measured, Autosampler for 12 h ([2]; spiked concentration 320 ng/mL): 327.40 ± 16.47 ng/mL; Measured, Room temperature for 4 h ([2]; spiked concentration 320 ng/mL): 316.24 ± 35.36 ng/mL; Measured, Three freeze-thaw cycles ([2]; spiked concentration 320 ng/mL): 292.73 ± 17.80 ng/mL

Question: Which concentration at 0.5 h ([1]; SD, rat, in vivo, po) does the source give for `COc1c(O)cc2oc(-c3ccccc3)cc(=O)c2c1O` [Oroxylin A, oroxylin A] here?
Answer: Its concentration at 0.5 h is 165 ng/mL.

Question: And the AUC(0-inf) ([1]; SD, rat, in vivo, po, 3 g/kg)?
Answer: Its AUC(0-inf) is 3010 ng·h/mL.

Question: And the AUC(0-t) ([1]; SD, rat, in vivo, po, 3 g/kg)?
Answer: Its AUC(0-t) is 2840 ng·h/mL.

Question: What about the Cmax ([1]; SD, rat, in vivo, po, 3 g/kg) of the same compound?
Answer: Its Cmax is 512 ± 179 ng/mL.

Question: What about the Tmax ([1]; SD, rat, in vivo, po, 3 g/kg) of the same compound?
Answer: Its Tmax is 0.25 ± 0.00 h.

Question: What about the half-life ([1]; SD, rat, in vivo, po, 3 g/kg) of the same compound?
Answer: Its half-life is 7.7 ± 0.97 h.

Question: And the “Measured, -80°C for 7 days” value ([2]; spiked concentration 10 ng/mL)?
Answer: The value was 10.45 ± 0.29 ng/mL.

Question: And the “Measured, Autosampler for 12 h” value ([2]; spiked concentration 10 ng/mL)?
Answer: Its value is 10.51 ± 1.15 ng/mL.

Question: And the “Measured, Room temperature for 4 h” value ([2]; spiked concentration 10 ng/mL)?
Answer: The value was 10.16 ± 0.90 ng/mL.

Question: What about the “Measured, Three freeze-thaw cycles” value ([2]; spiked concentration 10 ng/mL) of the same compound?
Answer: Its value is 10.69 ± 0.70 ng/mL.

Question: And the “Measured, -80°C for 7 days” value ([2]; spiked concentration 100 ng/mL)?
Answer: The value was 92.00 ± 7.39 ng/mL.

Question: What about the “Measured, Autosampler for 12 h” value ([2]; spiked concentration 100 ng/mL) of the same compound?
Answer: The value was 90.43 ± 9.04 ng/mL.

Question: What about the “Measured, Room temperature for 4 h” value ([2]; spiked concentration 100 ng/mL) of the same compound?
Answer: The value was 92.23 ± 5.62 ng/mL.

Question: And the “Measured, Three freeze-thaw cycles” value ([2]; spiked concentration 100 ng/mL)?
Answer: Its value is 88.86 ± 4.67 ng/mL.

Question: And the “Measured, -80°C for 7 days” value [2, 5]?
Answer: Its value is 1720.89 ± 130.14 ng/mL.

Question: And the “Measured, Autosampler for 12 h” value [2, 5]?
Answer: The value was 1797.17 ± 87.55 ng/mL.

Question: What about the “Measured, Room temperature for 4 h” value [2, 5] of the same compound?
Answer: The value was 1790.22 ± 78.72 ng/mL.

Question: And the “Measured, Three freeze-thaw cycles” value [2, 5]?
Answer: The value was 1733.57 ± 149.41 ng/mL.

Question: With `OCc1ccccc1O[C@@H]1O[C@H](CO)[C@@H](O)[C@H](O)[C@H]1O` [salicin] as the compound, how does the Tmax [1, 4] read?
Answer: Its Tmax is about 10 h.
